{
  "source": "patent US20150148304A1",
  "about": "“Novel Peptides and Analogs for Use in the Treatment of Macrophage Activation Syndrome” (Soligenix, Inc., priority 2013, published 2015)",
  "key": {"[1]": {"test_system": "macrophage activation syndrome model", "test": "CpG (TLR-9 agonist) induced model of macrophage activation syndrome", "assay_type": "in vivo, C57BL/6 mice", "experimental": "Macrophage activation syndrome was simulated in 8-10 week old C57BL/6 mice by repeated administration of the TLR-9 agonist, CpG. CpG (35 μg in 200 μL) or Saline was administered intraperitoneally (IP) on days 0, 2, 4, 7 and 9. SGX94 (200 mg/kg IP) or Saline was administered on days 1, 4 and 7. […] In a repeat study, the same model was used to test administration of saline (Days 1, 4 and 7; control); RIVPA (SEQ ID NO. 5) at 200 mg/kg administered on Days 1, 4 and 7, 400 mg/kg administered on Day 1, 4 and 7 and 400 mg/kg administered on Days 1; 3, 5 and 7. In this experiment CpG (35 μg) was administered on days 0, 2, 4, 7 and 10 and no saline-stimulated controls were used."}, "mouse normal blood cells": {"test_system": "mouse normal blood cells", "test": "proliferation of normal blood cells in vitro (mouse)", "assay_type": "cell-based"}, "[2]": {"test": "Phase 1 study in healthy volunteers, pharmacokinetics", "assay_type": "in vivo, human", "excerpt": "Following IV administration in human subjects and consistent with findings in animal studies, RIVPA (SEQ ID NO. 5) is cleared from the circulation within minutes. […] Following the rapid decline, a slower elimination phase was observed. […] Maximum plasma concentrations and total exposure levels were dose-proportional and clearance of RIVPA (SEQ ID NO. 5) from the circulation was rapid, consistent with the mouse and NHP experience.\nIn light of the high clearance and short elimination half-life, accumulation following daily injection was not expected to occur."}, "[3]": {"test": "cardiovascular (CV)/pulmonary safety pharmacology study", "assay_type": "in vivo, cynomolgus monkey", "excerpt": "In 1 animal, the high dose caused a marked reduction in respiratory rate followed by bradycardia, hypotension and death.\nIn summary, the major toxicological finding was an acute-onset respiratory depression, accompanied by labored breathing, recumbency and transient decreased activity."}, "[4]": {"test_system": "battery of CNS receptors and ion channels", "test": "interaction with a battery of CNS receptors and ion channels in vitro", "assay_type": "binding", "experimental": "(§1) No effects of RIVPA (SEQ ID NO. 5) have been observed on the central nervous system (CNS) in any study at any dose level and little or no radiolabelled RIVPA (SEQ ID NO. 5) was found in the mouse CNS at dose levels of either 20 or 90 mg/kg."}, "[5]": {"biological_target": "Sequestosome-1, also known as p62 (Homo sapiens, UniProt Q13501)", "sequence (Q13501 whole entry)": "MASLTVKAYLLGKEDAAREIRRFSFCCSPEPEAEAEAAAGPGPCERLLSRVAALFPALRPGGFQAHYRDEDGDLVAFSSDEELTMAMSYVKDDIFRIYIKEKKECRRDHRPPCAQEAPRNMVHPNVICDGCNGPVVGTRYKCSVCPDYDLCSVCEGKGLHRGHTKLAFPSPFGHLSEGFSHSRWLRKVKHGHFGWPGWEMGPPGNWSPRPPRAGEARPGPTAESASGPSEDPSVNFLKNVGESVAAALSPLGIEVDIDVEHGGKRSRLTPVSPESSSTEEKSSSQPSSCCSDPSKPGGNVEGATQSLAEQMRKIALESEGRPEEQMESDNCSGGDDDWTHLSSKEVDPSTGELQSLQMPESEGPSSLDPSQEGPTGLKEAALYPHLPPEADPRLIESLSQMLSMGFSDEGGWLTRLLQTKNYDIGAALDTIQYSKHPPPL", "details": "cited from earlier work"}, "human normal blood cells": {"test_system": "human normal blood cells", "test": "proliferation of normal blood cells in vitro (human)", "assay_type": "cell-based"}, "[6]": {"test": "acute toxicity (respiratory depression) dose levels, NHP", "assay_type": "in vivo, cynomologus monkey", "experimental": "The observed respiratory depression occurred at different dose levels in different species, and was not predicted by allometric scaling. In particular, the mouse appeared to be the most sensitive species with acute toxicity occurring rarely at 60 mg/kg (HED: ˜5 mg/kg) and commonly at 90 mg/kg (HED: ˜7 mg/kg). In contrast in NHP (cynomologus monkey), acute toxicity occurred occasionally at 160 mg/kg (HED: ˜50 mg/kg) and consistently at 240 mg/kg (HED: ˜78 mg/kg)."}, "[7]": {"test": "GLP 14-day repeat-dose IV toxicity study in cynomolgus monkeys", "assay_type": "in vivo", "experimental": "Two pilot and 2 definitive repeat-dose toxicity studies were conducted with RIVPA (SEQ ID NO. 5) in mice and cynomolgus monkeys using the intravenous (IV; slow bolus) route of administration.\nRIVPA (SEQ ID NO. 5) at 20, 80, 160 mg/kg/day was given IV to cynomolgus monkeys for 14 days. […] In all cases, these clinical signs resolved within a few minutes. […] A dose level of 80 mg/kg/day was considered to be the No-Observed-Adverse-Effect-Level (NOAEL) for this study.\nOverall, the NOAEL is considered to be 80 mg/kg/day for cynomolgus monkeys since transient clinical signs were limited to a single study and occurred in only 2 instances of the 98 administrations of the drug at this dose level.\nIn the latter study, no effect on T-cell, B-cell or NK-cell counts was observed after 14 days of intravenous RIVPA (SEQ ID NO. 5) dosing in the NHP. […] Collectively, there is no indication of a potential for RIVPA (SEQ ID NO. 5) to cause immunotoxicity or non-specific immune activation. No hyperactivation or suppression of adaptive immune responses, or other impact on the phenotypes of cells associated with adaptive immunity, has been detected following RIVPA (SEQ ID NO. 5) administration."}, "[8]": {"test": "distribution of radiolabelled RIVPA to the mouse CNS", "assay_type": "in vivo", "details": "dose levels of 20 or 90 mg/kg", "experimental": "as §1"}, "[9]": {"details": "Day 8, 200 mg/kg IP days 1, 4 and 7, relative to CpG stimulated, saline treated group"}, "[10]": {"details": "Day 10, serum, 200 mg/kg IP, first study"}, "[11]": {"details": "repeat study, 200 mg/kg Days 1, 4, 7, 400 mg/kg Days 1, 4, 7, 400 mg/kg Days 1, 3, 5, 7"}, "[12]": {"details": "single IV doses of 20 or 80 mg/kg"}},
  "note": "No end group written: not given here.",
  "data": [
    {"substance": "RIVPA-NH2 [RIVPA, L-arginyl-L-isoleucyl-L-valyl-L-prolyl-L-alanine-amide]", "values": [
      {"measurement": "platelet counts", "setting": "[1]; [9]", "value": "increased"},
      {"measurement": "white blood cell counts", "setting": "[1]; [9]", "value": "significantly increased"},
      {"measurement": "body weights", "setting": "[1]; Day 10, 200 mg/kg IP, relative to CpG stimulated, saline-treated group", "value": "increased"},
      {"measurement": "IFNγ levels", "setting": "[1]; [10]", "value": "not significantly altered"},
      {"measurement": "IL-10 levels", "setting": "[1]; [10]", "value": "not significantly altered"},
      {"measurement": "IL-12 levels", "setting": "[1]; Day 10, serum, 200 mg/kg IP, relative to CpG stimulated, saline-treated group", "value": "decreased"},
      {"measurement": "changes in saline stimulated, RIVPA treated group", "setting": "[1]; relative to saline stimulated, saline treated control", "value": "no significant changes"},
      {"measurement": "IFNγ levels", "setting": "[1]; repeat study", "value": "no significant changes"},
      {"measurement": "platelet count", "setting": "[1]; [11]", "value": "statistically significant increase"},
      {"measurement": "white blood cell count", "setting": "[1]; [11]", "value": "statistically significant increase"},
      {"measurement": "proliferation of mouse normal blood cells", "setting": "mouse normal blood cells", "value": "did not promote the proliferation"},
      {"measurement": "pre-dose concentrations on Days 5, 6, 7 and Day 8", "setting": "[2]; daily IV for 7 days, all subjects", "value": "below the lower limit of quantitation"},
      {"measurement": "Tmax", "setting": "[2]; human, plasma, intravenous, after start of infusion, dose range 0.15 mg/kg to 8 mg/kg, read-out: mean time of maximum concentration (Tmax)", "value": "4 to 4.8", "unit": "min"},
      {"measurement": "time after start of infusion for plasma levels to decrease to less than 10 percent of Cmax", "setting": "[2]; single-dose phase, 4-minute IV infusion", "value": "≤ 9", "unit": "min"},
      {"measurement": "maximum plasma concentrations and total exposure levels versus dose", "setting": "[2]; single-dose phase, IV", "value": "dose-proportional"},
      {"measurement": "clinical signs at 220 mg/kg", "setting": "[3]; 220 mg/kg, death in 1 animal", "value": "transient, severe clinical signs"},
      {"measurement": "cardiac toxicity or QT prolongation", "setting": "[3]; nonhuman primates", "value": "no cardiac toxicity or QT prolongation"},
      {"measurement": "clinical signs at 80 mg/kg", "setting": "[3]; single IV 80 mg/kg, during dosing", "value": "transient drooping eye lids and prostration"},
      {"measurement": "cardiovascular effects and ECG parameters", "setting": "[3]; [12]", "value": "no cardiovascular effects or changes in electrocardiogram (ECG) parameters"},
      {"measurement": "respiratory effects", "setting": "[3]; [12]", "value": "No respiratory effects were observed"},
      {"measurement": "interaction with CNS receptors and ion channels", "setting": "[4]", "value": "No interaction was detected"},
      {"measurement": "binding to p62", "setting": "[5]", "value": "binds"},
      {"measurement": "proliferation of human normal blood cells", "setting": "human normal blood cells", "value": "did not promote the proliferation"},
      {"measurement": "HED of dose at which acute toxicity occurs occasionally", "setting": "[6]; NHP 160 mg/kg", "value": "~50", "unit": "mg/kg"},
      {"measurement": "HED of dose at which acute toxicity occurs consistently", "setting": "[6]; NHP 240 mg/kg", "value": "~78", "unit": "mg/kg"},
      {"measurement": "clinical signs at 160 mg/kg", "setting": "[7]; 160 mg/kg/day IV for 14 days, cynomolgus monkeys, during and shortly after dosing", "value": "Transient decreased activity and partially closed eyes"},
      {"measurement": "toxicity at 20 and 80 mg/kg/day", "setting": "[7]; 20 and 80 mg/kg/day IV for 14 days, cynomolgus monkeys", "value": "did not result in any evidence of toxicity"},
      {"measurement": "immune-related organ weights, histopathology, hematology and clinical chemistry", "setting": "[7]; NHP 14-day toxicity study", "value": "no changes were observed"},
      {"measurement": "T-cell, B-cell or NK-cell counts", "setting": "[7]; after 14 days of intravenous dosing in the NHP", "value": "no effect"},
      {"measurement": "NOAEL at 14 days", "setting": "[7]; cynomolgus monkey, in vivo, IV for 14 days, cynomolgus monkeys, read-out: No-Observed-Adverse-Effect-Level (NOAEL) for this study", "value": 80, "unit": "mg/kg/day"},
      {"measurement": "overall NOAEL for cynomolgus monkeys", "setting": "[7]; overall across studies, IV", "value": 80, "unit": "mg/kg/day"},
      {"measurement": "radiolabelled RIVPA found in the mouse CNS", "setting": "[8]", "value": "little or no"}
    ]}
  ]
}
